Source: PubChem BioAssay (NCI)
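Tested at 5 concentrations; 48 h exposure; 96-well plates; endpoints linearly interpolated, else capped at highest concentration. TGI: total growth inhibition.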

Legend:
Experiment in all cases: inhibition of tumour cell growth, NCI panel, 48 h
CAKI-1 renal = test system: CAKI-1 renal
OVCAR-8 ovarian = test system: OVCAR-8 ovarian
NCI-H522 lung = test system: NCI-H522 lung
OVCAR-3 ovarian = test system: OVCAR-3 ovarian
SF-268 CNS = test system: SF-268 CNS
HCT-116 colon = test system: HCT-116 colon
MALME-3M melanoma = test system: MALME-3M melanoma
786-0 renal = test system: 786-0 renal
SF-539 CNS = test system: SF-539 CNS
DMS 114 small cell lung = test system: DMS 114 small cell lung
SK-OV-3 ovarian = test system: SK-OV-3 ovarian
KM12 colon = test system: KM12 colon
SN12C renal = test system: SN12C renal
K-562 leukemia = test system: K-562 leukemia
ACHN renal = test system: ACHN renal
NCI-H226 lung = test system: NCI-H226 lung
M19-MEL melanoma = test system: M19-MEL melanoma
UO-31 renal = test system: UO-31 renal
SNB-78 CNS = test system: SNB-78 CNS
RXF-631 renal = test system: RXF-631 renal
XF 498 CNS = test system: XF 498 CNS
HCC-2998 colon = test system: HCC-2998 colon
HT29 colon = test system: HT29 colon
U251 CNS = test system: U251 CNS
DLD-1 colon = test system: DLD-1 colon
NCI-H23 lung = test system: NCI-H23 lung
M14 melanoma = test system: M14 melanoma
LXFL 529 NSCLC = test system: LXFL 529 NSCLC
SNB-19 CNS = test system: SNB-19 CNS
SK-MEL-5 melanoma = test system: SK-MEL-5 melanoma
SF-295 CNS = test system: SF-295 CNS
HL-60(TB) leukemia = test system: HL-60(TB) leukemia
SW-620 colon = test system: SW-620 colon
OVCAR-5 ovarian = test system: OVCAR-5 ovarian
MOLT-4 leukemia = test system: MOLT-4 leukemia
IGROV1 ovarian = test system: IGROV1 ovarian
OVCAR-4 ovarian = test system: OVCAR-4 ovarian
HOP-18 NSCLC = test system: HOP-18 NSCLC
SK-MEL-2 melanoma = test system: SK-MEL-2 melanoma
RPMI-8226 leukemia = test system: RPMI-8226 leukemia
UACC-257 melanoma = test system: UACC-257 melanoma
HOP-62 NSCLC = test system: HOP-62 NSCLC
SK-MEL-28 melanoma = test system: SK-MEL-28 melanoma
A549 NSCLC = test system: A549 NSCLC
LOX IMVI melanoma = test system: LOX IMVI melanoma
CCRF-CEM leukemia = test system: CCRF-CEM leukemia
RXF 393 renal = test system: RXF 393 renal
HOP-92 NSCLC = test system: HOP-92 NSCLC
TK-10 renal = test system: TK-10 renal
UACC-62 melanoma = test system: UACC-62 melanoma
NCI-H460 lung = test system: NCI-H460 lung
EKVX NSCLC = test system: EKVX NSCLC
DU-145 prostate = test system: DU-145 prostate
BT-549 breast = test system: BT-549 breast
A498 renal = test system: A498 renal
MDA-N = test system: MDA-N
MDA-MB-435 = test system: MDA-MB-435
HS 578T breast = test system: HS 578T breast
SR leukemia = test system: SR leukemia
PC-3 prostate = test system: PC-3 prostate
SNB-75 CNS = test system: SNB-75 CNS
COLO 205 colon = test system: COLO 205 colon
HCT-15 colon = test system: HCT-15 colon
T-47D breast = test system: T-47D breast
MCF7 breast = test system: MCF7 breast
NCI/ADR-RES ovarian = test system: NCI/ADR-RES ovarian
MDA-MB-231 breast = test system: MDA-MB-231 breast

SMILES: COC(=O)C1(C)C=C(Nc2ccccc2)C(=O)N1c1ccccc1 (centres undefined)
- TGI (CAKI-1 renal): > 100 µM
- TGI (OVCAR-8 ovarian): > 100 µM
- TGI (NCI-H522 lung): > 100 µM
- TGI (OVCAR-3 ovarian): > 100 µM
- TGI (SF-268 CNS): > 100 µM
- TGI (HCT-116 colon): > 100 µM
- TGI (MALME-3M melanoma): > 100 µM
- TGI (786-0 renal): > 100 µM
- TGI (SF-539 CNS): > 100 µM
- TGI (DMS 114 small cell lung): > 100 µM
- TGI (SK-OV-3 ovarian): > 100 µM
- TGI (KM12 colon): > 100 µM
- TGI (SN12C renal): > 100 µM
- TGI (K-562 leukemia): > 100 µM
- TGI (ACHN renal): > 100 µM
- TGI (NCI-H226 lung): > 100 µM
- TGI (M19-MEL melanoma): > 100 µM
- TGI (UO-31 renal): > 100 µM
- TGI (SNB-78 CNS): > 100 µM
- TGI (RXF-631 renal): > 100 µM
- TGI (XF 498 CNS): > 100 µM
- TGI (HCC-2998 colon): > 100 µM
- TGI (HT29 colon): > 100 µM
- TGI (U251 CNS): > 100 µM
- TGI (DLD-1 colon): > 100 µM
- TGI (NCI-H23 lung): > 100 µM
- TGI (M14 melanoma): > 100 µM
- TGI (LXFL 529 NSCLC): > 100 µM
- TGI (SNB-19 CNS): > 100 µM
- TGI (SK-MEL-5 melanoma): > 100 µM
- TGI (SF-295 CNS): > 100 µM
- TGI (HL-60(TB) leukemia): > 100 µM
- TGI (SW-620 colon): > 100 µM
- TGI (OVCAR-5 ovarian): > 100 µM
- TGI (MOLT-4 leukemia): > 100 µM
- TGI (IGROV1 ovarian): > 100 µM
- TGI (OVCAR-4 ovarian): > 100 µM
- TGI (HOP-18 NSCLC): > 100 µM
- TGI (SK-MEL-2 melanoma): > 100 µM
- TGI (RPMI-8226 leukemia): > 100 µM
- TGI (UACC-257 melanoma): > 100 µM
- TGI (HOP-62 NSCLC): > 100 µM
- TGI (SK-MEL-28 melanoma): > 100 µM
- TGI (A549 NSCLC): > 100 µM
- TGI (LOX IMVI melanoma): > 100 µM
- TGI (CCRF-CEM leukemia): > 100 µM
- TGI (RXF 393 renal): > 100 µM
- TGI (HOP-92 NSCLC): > 100 µM
- TGI (TK-10 renal): > 100 µM
- TGI (UACC-62 melanoma): > 100 µM
- TGI (NCI-H460 lung): > 100 µM
- TGI (EKVX NSCLC): > 100 µM

SMILES: Cn1c(=O)oc2cc(C(=O)CSC(=S)N3CCCCCC3)ccc21
- TGI (CAKI-1 renal): > 100 µM
- TGI (OVCAR-8 ovarian): > 100 µM
- TGI (NCI-H522 lung): > 100 µM
- TGI (DU-145 prostate): > 100 µM
- TGI (OVCAR-3 ovarian): > 100 µM
- TGI (SF-268 CNS): > 100 µM
- TGI (HCT-116 colon): > 100 µM
- TGI (MALME-3M melanoma): > 100 µM
- TGI (786-0 renal): > 100 µM
- TGI (SF-539 CNS): > 100 µM
- TGI (BT-549 breast): > 100 µM
- TGI (A498 renal): > 100 µM
- TGI (SK-OV-3 ovarian): > 100 µM
- TGI (KM12 colon): > 100 µM
- TGI (MDA-N): > 100 µM
- TGI (SN12C renal): > 100 µM
- TGI (MDA-MB-435): > 100 µM
- TGI (K-562 leukemia): > 100 µM
- TGI (ACHN renal): > 100 µM
- TGI (NCI-H226 lung): > 100 µM
- TGI (HS 578T breast): > 100 µM
- TGI (UO-31 renal): > 100 µM
- TGI (SR leukemia): > 100 µM
- TGI (PC-3 prostate): > 100 µM
- TGI (HCC-2998 colon): > 100 µM
- TGI (HT29 colon): 36.7 µM
- TGI (SNB-75 CNS): > 100 µM
- TGI (U251 CNS): > 100 µM
- TGI (NCI-H23 lung): > 100 µM
- TGI (M14 melanoma): > 100 µM
- TGI (COLO 205 colon): > 100 µM
- TGI (HCT-15 colon): > 100 µM
- TGI (SNB-19 CNS): > 100 µM
- TGI (SK-MEL-5 melanoma): > 100 µM
- TGI (SF-295 CNS): > 100 µM
- TGI (HL-60(TB) leukemia): > 100 µM
- TGI (SW-620 colon): > 100 µM
- TGI (OVCAR-5 ovarian): > 100 µM
- TGI (MOLT-4 leukemia): > 100 µM
- TGI (IGROV1 ovarian): > 100 µM
- TGI (OVCAR-4 ovarian): > 100 µM
- TGI (SK-MEL-2 melanoma): > 100 µM
- TGI (T-47D breast): > 100 µM
- TGI (MCF7 breast): > 100 µM
- TGI (RPMI-8226 leukemia): > 100 µM
- TGI (UACC-257 melanoma): > 100 µM
- TGI (NCI/ADR-RES ovarian): > 100 µM
- TGI (HOP-62 NSCLC): > 100 µM
- TGI (SK-MEL-28 melanoma): > 100 µM
- TGI (A549 NSCLC): > 100 µM
- TGI (MDA-MB-231 breast): > 100 µM
- TGI (CCRF-CEM leukemia): > 100 µM
- TGI (RXF 393 renal): > 100 µM
- TGI (HOP-92 NSCLC): > 100 µM
- TGI (TK-10 renal): > 100 µM
- TGI (UACC-62 melanoma): > 100 µM
- TGI (NCI-H460 lung): > 100 µM
- TGI (EKVX NSCLC): > 100 µM

SMILES: CCOc1c2ccsc2c(OCC)c2ccsc12
- TGI (CAKI-1 renal): > 100 µM
- TGI (OVCAR-8 ovarian): > 100 µM
- TGI (NCI-H522 lung): > 28.9 µM
- TGI (DU-145 prostate): > 100 µM
- TGI (OVCAR-3 ovarian): 61.1 µM
- TGI (SF-268 CNS): > 100 µM
- TGI (HCT-116 colon): > 100 µM
- TGI (MALME-3M melanoma): > 100 µM
- TGI (786-0 renal): > 100 µM
- TGI (SF-539 CNS): 9.79 µM
- TGI (BT-549 breast): > 100 µM
- TGI (A498 renal): > 100 µM
- TGI (SK-OV-3 ovarian): > 100 µM
- TGI (KM12 colon): > 100 µM
- TGI (MDA-N): 4.83 µM
- TGI (SN12C renal): > 100 µM
- TGI (MDA-MB-435): 3.15 µM
- TGI (K-562 leukemia): > 100 µM
- TGI (ACHN renal): > 100 µM
- TGI (NCI-H226 lung): > 100 µM
- TGI (HS 578T breast): > 73.7 µM
- TGI (UO-31 renal): > 100 µM
- TGI (SR leukemia): > 100 µM
- TGI (PC-3 prostate): > 100 µM
- TGI (HCC-2998 colon): > 75.5 µM
- TGI (HT29 colon): > 36 µM
- TGI (SNB-75 CNS): > 28.3 µM
- TGI (U251 CNS): > 100 µM
- TGI (NCI-H23 lung): > 78 µM
- TGI (M14 melanoma): > 100 µM
- TGI (COLO 205 colon): > 41.1 µM
- TGI (HCT-15 colon): > 30.7 µM
- TGI (SNB-19 CNS): > 100 µM
- TGI (SK-MEL-5 melanoma): > 29.5 µM
- TGI (SF-295 CNS): 9.84 µM
- TGI (HL-60(TB) leukemia): 7.43 µM
- TGI (SW-620 colon): > 100 µM
- TGI (OVCAR-5 ovarian): > 100 µM
- TGI (MOLT-4 leukemia): > 28.5 µM
- TGI (IGROV1 ovarian): > 100 µM
- TGI (OVCAR-4 ovarian): > 100 µM
- TGI (SK-MEL-2 melanoma): > 100 µM
- TGI (T-47D breast): > 100 µM
- TGI (MCF7 breast): 31.7 µM
- TGI (RPMI-8226 leukemia): > 100 µM
- TGI (UACC-257 melanoma): > 100 µM
- TGI (NCI/ADR-RES ovarian): > 100 µM
- TGI (HOP-62 NSCLC): > 100 µM
- TGI (SK-MEL-28 melanoma): > 100 µM
- TGI (A549 NSCLC): > 100 µM
- TGI (LOX IMVI melanoma): 23 µM
- TGI (MDA-MB-231 breast): > 100 µM
- TGI (CCRF-CEM leukemia): > 100 µM
- TGI (RXF 393 renal): > 24.2 µM
- TGI (HOP-92 NSCLC): 86.2 µM
- TGI (TK-10 renal): > 100 µM
- TGI (UACC-62 melanoma): > 100 µM
- TGI (NCI-H460 lung): > 100 µM
- TGI (EKVX NSCLC): > 100 µM
